This note sets out measurements from patent US9790252B2, “2-fluorinated riboses and arabinoses and methods of use and synthesis” (CORNELL UNIVERSITY, priority 2009, dated 2017).

pEC50, pKi: −log10 of the molar value.

The target in one data set is T1, SirT3 (Homo sapiens, UniProt Q9NTG7).
T1 sequence (Q9NTG7 1-399): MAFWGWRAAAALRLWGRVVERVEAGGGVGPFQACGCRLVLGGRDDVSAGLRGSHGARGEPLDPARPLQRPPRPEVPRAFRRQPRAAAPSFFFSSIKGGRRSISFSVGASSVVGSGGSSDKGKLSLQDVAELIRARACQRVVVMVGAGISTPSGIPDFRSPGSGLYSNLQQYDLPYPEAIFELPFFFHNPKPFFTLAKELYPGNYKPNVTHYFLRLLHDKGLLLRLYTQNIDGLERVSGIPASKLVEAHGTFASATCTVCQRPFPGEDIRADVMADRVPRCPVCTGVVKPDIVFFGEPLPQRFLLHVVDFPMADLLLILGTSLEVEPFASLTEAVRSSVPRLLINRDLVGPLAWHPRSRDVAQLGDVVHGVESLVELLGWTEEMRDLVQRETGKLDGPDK
Description: SirT3 activity assay (HPLC of 2′- and 3′-AADPR). The settings on record: 800 μM NAD+, 500 μM H3 peptide, pH 7.5, 2 hours at 37° C. The data set is classed as biochemical. How it is done: Reactions containing 800 μM NAD^+, 500 μM H3 peptide, and 100 mM phosphate buffer at pH 7.5, with varying concentrations of 2′-deoxy-2′-fluoro-nucleosides or nucleotides were initiated by addition of SirT3 enzyme to a concentration of 13.9 μM. Reactions were incubated for 2 hours at 37° C. and quenched by addition of trifluoroacetic acid to pH 2. After centrifugation to remove precipitates, reactions were injected on HPLC for activity analysis. Production of 2′- and 3′-AADPR were analyzed at 260 nm.
SirT3 Activity Assay: Reactions containing 800 μM NAD^+, 500 μM H3 peptide, and 100 mM phosphate buffer at pH 7.5, with varying concentrations of 2′-deoxy-2′-chloro-nucleosides were initiated by addition of SirT3 enzyme to a concentration of 13.9 μM. Reactions were incubated for 2 hours at 37° C. and quenched by addition of trifluoroacetic acid to pH 2. After centrifugation to remove precipitates, reactions were injected on HPLC for activity analysis. Production of 2′- and 3′-AADPR were analyzed at 260 nm.

A further data set deals with T2, SirT1 (Homo sapiens, UniProt Q96EB6).
T2 sequence (Q96EB6 1-747): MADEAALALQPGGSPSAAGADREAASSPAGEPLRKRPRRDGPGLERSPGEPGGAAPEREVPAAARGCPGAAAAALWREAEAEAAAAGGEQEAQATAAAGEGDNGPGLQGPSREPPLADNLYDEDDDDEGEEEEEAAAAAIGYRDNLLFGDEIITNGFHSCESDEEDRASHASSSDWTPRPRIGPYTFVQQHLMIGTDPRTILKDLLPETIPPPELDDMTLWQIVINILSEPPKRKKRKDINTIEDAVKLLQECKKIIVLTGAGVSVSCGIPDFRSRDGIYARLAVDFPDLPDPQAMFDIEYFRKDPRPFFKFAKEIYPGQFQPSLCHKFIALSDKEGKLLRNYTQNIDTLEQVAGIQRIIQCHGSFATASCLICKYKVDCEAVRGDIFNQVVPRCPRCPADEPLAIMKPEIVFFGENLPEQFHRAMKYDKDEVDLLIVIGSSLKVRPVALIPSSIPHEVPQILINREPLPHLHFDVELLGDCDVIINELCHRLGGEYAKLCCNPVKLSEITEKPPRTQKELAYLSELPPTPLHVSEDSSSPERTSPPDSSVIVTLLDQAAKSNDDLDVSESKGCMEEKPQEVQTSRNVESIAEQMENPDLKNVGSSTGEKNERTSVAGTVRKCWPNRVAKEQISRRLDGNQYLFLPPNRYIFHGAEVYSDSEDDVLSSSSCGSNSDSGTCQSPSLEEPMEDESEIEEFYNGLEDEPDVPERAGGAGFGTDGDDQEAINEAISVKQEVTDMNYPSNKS
In words: SirT1 activity assay (HPLC of 2′- and 3′-AADPR). The data set is classed as biochemical. The settings on record: 200 μM NAD+, 100 μM JB12 peptide; for SirT1 Ki / pKi: pH 7.5, 30 mins at 37° C.; for SirT1 inhibition (in words): pH 7.5. How it is done:
Reactions containing 200 μM NAD^+, 100 μM JB12 peptide, and 100 mM phosphate buffer at pH 7.5, with varying concentrations of 2′-deoxy-2′-fluoro-nucleosides or nucleotides were initiated by addition of SirT1 enzyme to a concentration of 12.9 μM. Reactions were incubated for 30 mins at 37° C. and quenched by addition of trifluoroacetic acid to pH 2. After centrifugation to remove precipitates, reactions were injected on HPLC for activity analysis. Production of 2′- and 3′-AADPR were analyzed at 260 nm.
SirT1 Activity Assay: Reactions containing 200 μM NAD^+, 100 μM JB12 peptide, and 100 mM phosphate buffer at pH 7.5, with varying concentrations of 2′-deoxy-2′-chloro-nucleosides were initiated by addition of SirT1 enzyme to a concentration of 12.9 μM. Reactions were incubated for 30 mins at 37° C. and quenched by addition of trifluoroacetic acid to pH 2. After centrifugation to remove precipitates, reactions were injected on HPLC for activity analysis. Production of 2′- and 3′-AADPR were analyzed at 260 nm.

In a further data set the test system is Neuro2A cells. Description: Toxicity to Neuro2A cells (MTT). The data set is classed as cell-based. The conditions noted are these: for 100 μM absorbance / 100 μM relative viability / 500 μM absorbance / 500 μM relative viability: 12 hours; for 100 μM absorbance / 500 μM absorbance: 570 nm. How it is done: 6. Neuro2A cells were seeded in 96-well plate at a density of 25,000 cells/well the day before the experiment starts;
7. After the cells reach 50˜60% confluency, media was taken out, and 100 μL of fresh media was added to each well;
8. […]
9. After 12 hours' incubation at 37° C., the media was taken out, 100 μL of fresh media was added to each well along with 20 μL of 5 mg/mL of MTT solution (in PBS);
10. After 1.5 hours' incubation at 37° C., media was taken out and 100 μL of DMSO was added to each well, the plate was mixed on shaker for 5 mins;
Absorbance was measured at 570 nm.
Assay for Determining Toxicity to HEK293 and Neuro2A Cells • 1. HEK293 and Neuro2A cells were seeded in 96-well plate at a density of 25,000 cells/well the day before the experiment starts; • 2. After the cells reach 50˜60% confluency, media was taken out, and 100 μL of fresh media was added to each well; • 3. […] After 12 hours' incubation at 37° C., the media was taken out, 100 μL of fresh media was added to each well along with 20 μL of 5 mg/mL of MTT solution (in PBS); • 5. After 2 hours' incubation at 37° C., media was taken out and 100 μL of DMSO was added to each well, the plate was mixed on shaker for 5 mins; • 6. Absorbance was measured at 570 nm.

The mark [1] stands for this setting: Mus musculus, N2a, 2′-deoxy-2′-fluoro-nucleosides and nucleotides.
Where [2] appears, read: MTT 2 hours, chloro-nucleosides.
Where [3] appears, read: control = 1, chloro-nucleosides.

Usually pKi stands for the Ki on a negative log10 scale, so that one unit is a factor of ten. A low value points to a high Ki. The pEC50 is the EC50 on a negative log10 scale, so that one unit is a factor of ten. Read a high pEC50 as a small EC50. Turning to `NC(=O)c1ccc[n+]([C@@H]2O[C@H](CO)C(O)C2F)c1` (stereo partly shown) [ara-F-NR, 1-(2′-deoxy-2′-fluoro-arabinofuranosyl)-nicotinamide], the pKi at SirT3 is 3.21. At SirT1, the “SirT1 Ki” value is “Ki = high mM”. Moreover, in the data set with Neuro2A cells (MTT 1.5 hours), the “100 μM absorbance” value worked out at 2.0227 and the “500 μM absorbance” value is on record as 2.0666. Moreover, in the data set on Neuro2A cells (control = 1), the “100 μM relative viability” value came out at 0.831 and the “500 μM relative viability” value came to 0.849. This molecule showed a pEC50 in the data set with Neuro2A cells (setting [1]) of 2.42.
`NC(=O)c1ccc[n+]([C@@H]2O[C@H](COP(=O)([O-])O)C(O)C2(F)F)c1` (stereo partly shown) [gem-diF-NMN, 2′-deoxy-2′,2′-difluoro-ribo-nicotinamide mononucleotide]: the pKi at SirT3 is 3.89. This molecule showed a pKi on SirT1 of 4.74. Further, in the data set with Neuro2A cells (MTT 1.5 hours), the “100 μM absorbance” value is given as 1.0774 and the “500 μM absorbance” value amounted to 0.0217. In the data set with Neuro2A cells (control = 1), the “100 μM relative viability” value worked out at 0.443 and the “500 μM relative viability” value is recorded as 0.009. For the same molecule, the pEC50 in the data set with Neuro2A cells (setting [1]) was 4.19.
For `NC(=O)c1ccc[n+]([C@@H]2O[C@H](CO)[C@@H](O)C2(F)F)c1` [gem-diF-NR, 1-(2′-deoxy-2′,2′-difluoro-ribofuranosyl)-nicotinamide], the “SirT3 Ki” value on SirT3 was “Ki = high mM”. Also, at SirT1, the “SirT1 inhibition (in words)” value is recorded as “no inhibition”. Further, in the data set with Neuro2A cells (MTT 1.5 hours), the “100 μM absorbance” value is on record as 0.8234 and the “500 μM absorbance” value is 0.5374. In the data set on Neuro2A cells (control = 1), the “100 μM relative viability” value was 0.338 and the “500 μM relative viability” value is given as 0.221. This molecule also had a pEC50 with Neuro2A cells (setting [1]) of 4.21.
Turning to `NC(=O)c1ccc[n+]([C@@H]2O[C@H](COP(=O)([O-])O)C(O)C2F)c1` (stereo partly shown) [ribo-F-NMN, 2′-deoxy-2′-fluoro-ribo-nicotinamide mononucleotide], the pKi at SirT3 was 3.97. Besides, at SirT1, the “SirT1 inhibition (in words)” value is listed as “no inhibition”. In the data set with Neuro2A cells (MTT 1.5 hours), the “100 μM absorbance” value was 2.2023 and the “500 μM absorbance” value was determined as 1.7872. For the same molecule, in the data set with Neuro2A cells (control = 1), the “100 μM relative viability” value is on record as 0.905 and the “500 μM relative viability” value turned out to be 0.735. This molecule also gave a pEC50 with Neuro2A cells (2′-deoxy-2′-fluoro-nucleosides and nucleotides) of 2.85.
As for `NC(=O)c1ccc[n+]([C@@H]2O[C@H](CO)C(O)[C@@H]2F)c1` (stereo partly drawn) [ribo-F-NR, 1-(2-deoxy-2-fluoro-D-ribofuranosyl)-nicotinamide], the pKi at SirT3 was 3.60. Further, the pKi at SirT1 was 3.70. Besides, in the data set on Neuro2A cells (MTT 1.5 hours), the “100 μM absorbance” value is reported as 1.8769 and the “500 μM absorbance” value turned out to be 0.8391. For the same molecule, in the data set on Neuro2A cells (control = 1), the “100 μM relative viability” value came out at 0.771 and the “500 μM relative viability” value is on record as 0.345. The same molecule had a pEC50 with Neuro2A cells (setting [1]) of 3.55.
At SirT3, `NC(=O)c1ccc[n+]([C@@H]2O[C@H](CO)C(O)C2Cl)c1` (stereo partly drawn) [β-ara-Cl-NR, 1-(2′-deoxy-2′-chloro-arabinofuranosyl)-nicotinamide] gave a pKi of 3.26. The “SirT1 Ki” value on SirT1 is listed as “Ki = high mM”. Further, in the data set on Neuro2A cells (setting [2]), the “100 μM absorbance” value amounted to 0 and the “500 μM absorbance” value was found to be 0. In the data set with Neuro2A cells (setting [3]), the “100 μM relative viability” value is listed as 0 and the “500 μM relative viability” value was found to be 0. Further, in the data set on Neuro2A cells (Mus musculus, N2a, 2′-deoxy-2′-chloro-nucleosides), the pEC50 was 5.05.
In turn, `NC(=O)c1ccc[n+]([C@@H]2O[C@H](CO)C(O)C2(Cl)Cl)c1` (stereo partly drawn) [β-gem-diCl-NR, 1-(2′-deoxy-2′,2′-dichloro-ribofuranosyl)-nicotinamide] gave a pKi on SirT3 of 3.91. Besides, at SirT1, the pKi was 3.11. For the same molecule, in the data set with Neuro2A cells (setting [2]), the “100 μM absorbance” value came to 2.615 and the “500 μM absorbance” value was 2.63. In the data set with Neuro2A cells (setting [3]), the “100 μM relative viability” value turned out to be 1.106 and the “500 μM relative viability” value came out at 1.112. Besides, in the data set with Neuro2A cells (at 500 μM), the “toxicity to Neuro2A (in words)” value is on record as “not toxic at 500 μM”.
